Assay results as given in the NIST ThermoML archive (doi:10.1016/j.jct.2017.06.013).

Experiment: xn = mol fraction of the nth substance listed
Details: Liquid, Vibrating tube method

CC(C)OC(C)C [diisopropyl ether] + CCCCCCO
mass density [kg/m3]
Details	293.15 K	313.15 K	333.15 K	353.15 K	373.15 K	393.15 K
100 kPa, x1 = 0.1524	806.7	791.5	775.6	759.2	741.8	–
100 kPa, x1 = 0.3196	792.1	776	759.2	741.7	723.3	–
100 kPa, x1 = 0.4906	776.3	759.1	741.1	722.5	702.7	–
100 kPa, x1 = 0.6974	756.4	737.8	718.3	698	676.5	–
100 kPa, x1 = 0.8457	741.2	721.4	700.6	679.1	656.3	–
500 kPa, x1 = 0.1524	806.9	791.8	776	759.5	742	724.7
500 kPa, x1 = 0.3196	792.3	776.3	759.6	742.1	723.5	705
500 kPa, x1 = 0.4906	776.7	759.5	741.6	723	703.1	683.5
500 kPa, x1 = 0.6974	756.8	738.2	718.8	698.5	677	655.7
500 kPa, x1 = 0.8457	741.7	721.9	701.3	679.8	657	634.2
1000 kPa, x1 = 0.1524	807.2	792.2	776.5	760	742.6	725.4
1000 kPa, x1 = 0.3196	792.7	776.7	760.1	742.7	724.1	705.7
1000 kPa, x1 = 0.4906	777.1	760	742.2	723.6	703.9	684.4
1000 kPa, x1 = 0.6974	757.3	738.8	719.5	699.3	678	656.8
1000 kPa, x1 = 0.8457	742.2	722.5	702.1	680.7	658.1	635.6
2000 kPa, x1 = 0.1524	807.9	793	777.4	761	743.8	726.7
2000 kPa, x1 = 0.3196	793.5	777.6	761.1	743.8	725.5	707.3
2000 kPa, x1 = 0.4906	777.9	761	743.3	724.9	705.4	686.3
2000 kPa, x1 = 0.6974	758.3	739.9	720.8	700.8	679.9	659.1
2000 kPa, x1 = 0.8457	743.3	723.8	703.6	682.5	660.3	638.4
5000 kPa, x1 = 0.1524	810	795.3	780	764	747.1	730.5
5000 kPa, x1 = 0.3196	795.7	780.2	764	747.1	729.2	711.7
5000 kPa, x1 = 0.4906	780.4	763.9	746.7	728.8	709.9	691.5
5000 kPa, x1 = 0.6974	761.1	743.3	724.7	705.4	685.2	665.6
5000 kPa, x1 = 0.8457	746.4	727.5	707.9	687.6	666.5	645.9
10000 kPa, x1 = 0.1524	813.4	799	784.2	768.7	752.4	736.6
10000 kPa, x1 = 0.3196	799.5	784.3	768.7	752.4	735.3	718.7
10000 kPa, x1 = 0.4906	784.5	768.4	751.8	734.8	716.7	699.5
10000 kPa, x1 = 0.6974	765.7	748.4	730.6	712.3	693.4	675.3
10000 kPa, x1 = 0.8457	751.4	733.2	714.5	695.5	675.7	657
15000 kPa, x1 = 0.1524	816.6	802.6	788.1	773.1	757.3	742.1
15000 kPa, x1 = 0.3196	803	788.2	773	757.3	740.8	724.9
15000 kPa, x1 = 0.4906	788.3	772.7	756.7	740.2	723	706.6
15000 kPa, x1 = 0.6974	770	753.3	736.1	718.7	700.7	683.6
15000 kPa, x1 = 0.8457	756.1	738.5	720.6	702.5	683.8	666.4
20000 kPa, x1 = 0.1524	819.7	806	791.8	777.3	761.9	747.3
20000 kPa, x1 = 0.3196	806.4	791.9	777.1	761.9	745.9	730.7
20000 kPa, x1 = 0.4906	792	776.8	761.2	745.3	728.8	713.2
20000 kPa, x1 = 0.6974	774.1	757.8	741.3	724.5	707.3	691.2
20000 kPa, x1 = 0.8457	760.5	743.4	726.2	708.9	691.2	674.9
30000 kPa, x1 = 0.1524	825.7	812.4	798.8	785	770.5	756.7
30000 kPa, x1 = 0.3196	812.8	798.9	784.8	770.4	755.4	741.1
30000 kPa, x1 = 0.4906	799	784.3	769.6	754.6	739.1	724.7
30000 kPa, x1 = 0.6974	781.7	766.2	750.7	735	719.1	704.4
30000 kPa, x1 = 0.8457	768.7	752.5	736.4	720.4	704.1	689.3
40000 kPa, x1 = 0.1524	831.2	818.5	805.4	792	778.2	765.3
40000 kPa, x1 = 0.3196	818.6	805.4	791.9	778	763.8	750.4
40000 kPa, x1 = 0.4906	805.3	791.4	777.3	762.9	748.4	735
40000 kPa, x1 = 0.6974	788.6	773.9	759.3	744.3	729.4	715.8
40000 kPa, x1 = 0.8457	776	760.8	745.6	730.4	715.3	701.7
50000 kPa, x1 = 0.1524	836.3	823.9	811.3	798.5	785.2	772.8
50000 kPa, x1 = 0.3196	824.1	811.2	798.3	785	771.3	758.6
50000 kPa, x1 = 0.4906	811.2	797.7	784.2	770.5	756.6	743.9
50000 kPa, x1 = 0.6974	795	780.9	766.8	752.6	738.5	725.7
50000 kPa, x1 = 0.8457	782.9	768.2	753.8	739.4	725	712.2
60000 kPa, x1 = 0.1524	841.3	829.3	817	804.6	791.8	779.9
60000 kPa, x1 = 0.3196	829.4	817	804.4	791.6	778.4	766.4
60000 kPa, x1 = 0.4906	816.8	803.8	790.7	777.6	764.2	752.2
60000 kPa, x1 = 0.6974	801	787.5	773.8	760.6	746.9	734.8
60000 kPa, x1 = 0.8457	789.3	775.1	761.2	747.7	733.9	721.9
70000 kPa, x1 = 0.1524	846.1	834.3	822.4	810.3	797.9	786.7
70000 kPa, x1 = 0.3196	834.5	822.3	810.1	797.7	784.9	773.5
70000 kPa, x1 = 0.4906	822.1	809.5	796.8	784.2	771.3	759.9
70000 kPa, x1 = 0.6974	806.7	793.6	780.5	767.6	754.5	743.1
70000 kPa, x1 = 0.8457	795.3	781.7	768.3	755.2	742	730.7
80000 kPa, x1 = 0.1524	850.4	839	827.3	815.7	803.8	792.8
80000 kPa, x1 = 0.3196	839.1	827.3	815.4	803.3	791.2	779.9
80000 kPa, x1 = 0.4906	827.1	814.7	802.4	790.1	778	766.8
80000 kPa, x1 = 0.6974	812	799.3	786.6	774.1	761.8	750.5
80000 kPa, x1 = 0.8457	800.8	787.7	774.7	762.1	749.5	738.5
90000 kPa, x1 = 0.1524	854.7	843.4	832.2	820.8	809.2	798.6
90000 kPa, x1 = 0.3196	843.6	832	820.4	808.9	796.9	786.1
90000 kPa, x1 = 0.4906	831.8	819.7	807.8	796.1	784	773.4
90000 kPa, x1 = 0.6974	817.1	804.6	792.4	780.4	768.3	757.6
90000 kPa, x1 = 0.8457	806.1	793.2	780.8	768.7	756.4	745.9
100000 kPa, x1 = 0.1524	858.8	847.8	836.8	825.7	814.3	804.1
100000 kPa, x1 = 0.3196	848	836.6	825.3	814	802.4	791.8
100000 kPa, x1 = 0.4906	836.3	824.6	813	801.5	789.8	779.5
100000 kPa, x1 = 0.6974	822	809.8	797.9	786.2	774.4	764.1
100000 kPa, x1 = 0.8457	811.2	798.7	786.7	774.8	762.8	752.7
110000 kPa, x1 = 0.1524	862.7	852	841.1	830.4	819.4	809.4
110000 kPa, x1 = 0.3196	852	841	829.8	818.9	807.6	797.5
110000 kPa, x1 = 0.4906	840.6	829.2	817.8	806.7	795.3	785.4
110000 kPa, x1 = 0.6974	826.6	814.6	803	791.7	780.3	770.3
110000 kPa, x1 = 0.8457	816	803.8	792	780.5	769	759.2
120000 kPa, x1 = 0.1524	866.5	855.9	845.5	834.9	824.2	814.4
120000 kPa, x1 = 0.3196	856	845.2	834.4	823.6	812.6	802.7
120000 kPa, x1 = 0.4906	844.8	833.6	822.6	811.6	800.6	790.8
120000 kPa, x1 = 0.6974	830.9	819.3	808.1	796.9	785.9	776.1
120000 kPa, x1 = 0.8457	820.5	808.7	797.4	786	774.7	765.1
130000 kPa, x1 = 0.1524	870.3	859.9	849.4	839.1	828.6	819.1
130000 kPa, x1 = 0.3196	859.9	849.2	838.6	828	817.3	807.6
130000 kPa, x1 = 0.4906	848.9	837.8	827	816.3	805.5	796
130000 kPa, x1 = 0.6974	835.2	823.9	812.8	801.9	791.1	781.5
130000 kPa, x1 = 0.8457	825	813.4	802.2	791.1	780.2	770.8
140000 kPa, x1 = 0.1524	873.7	863.6	853.4	843.2	833	823.7
140000 kPa, x1 = 0.3196	863.5	853.2	842.8	832.4	821.8	812.4
140000 kPa, x1 = 0.4906	852.6	841.9	831.4	820.8	810.2	801
140000 kPa, x1 = 0.6974	839.2	828.2	817.4	806.6	796.1	786.8
140000 kPa, x1 = 0.8457	829	817.9	807	796	785.3	776.3
